Test results as given in EPA's ToxValDB 9.5 (doi:10.2903/j.efsa.2013.3143).
Several values for one entry are separate records, joined by “and”; a condition that tells them apart may be missing. Equal values may be shown once.

Tests used:
[1] = tested on: Rattus norvegicus; conditions: for LD50: acute, oral, mortality
[2] = tested on: Mus musculus
[3] = tested on: Hypoaspis aculeifer; conditions: chronic/long-term; duration: 16 days; mortality
[4] = tested on: Colinus virginianus
[5] = tested on: Tagia sp.
[6] = tested on: Bibionidae; conditions: chronic/long-term; duration: 28 days; other
[7] = tested on: Apis mellifera; conditions: acute, mortality
[8] = tested on: Cyprinodon variegatus; conditions: acute; duration: 96 hours; mortality
[9] = tested on: Daphnia magna; conditions: chronic/long-term; duration: 21 days; reproduction
[10] = tested on: Canidae; conditions: chronic; duration: 1 years; oral; Dog Other; organ weight
[11] = tested on: Oncorhynchus mykiss; conditions: chronic/long-term; duration: 90 days; development
[12] = tested on: Typhlodromus pyri; test: LR50; higher = less toxic; conditions: chronic/long-term; duration: 7 days; mortality

Row | Compound | LD50 [1] [mg/kg-day] | LD50 ([2]; acute, oral, mortality) [mg/kg-day] | NOEC [3] [mg/kg] | NOAEL ([2]; chronic, duration: 18 months, histopathology: nonneoplastic) [mg/kg-day] | LC50 ([4]; acute, oral, diet, mortality) [mg/kg-day] | LD50 ([4]; acute, oral, mortality) [mg/kg-day] | NOAEL ([4]; reproduction developmental, reproduction) [mg/kg-day] | LC50 ([5]; acute, duration: 14 days, mortality) [mg/kg] | NOEC ([5]; chronic/long-term, duration: 56 days, reproduction) [mg/kg] | NOEC [6] | LD50 ([7]; duration: 48 hours, oral, unspecified) [µg/piece] | LD50 ([7]; duration: 72 hours, dermal) [µg/piece] | LC50 [8] [µg/mL] | NOEC [9] [mg/L] | NOAEL [10] [mg/kg-day] | NOAEL ([1]; chronic, duration: 2 years, organ weight) [mg/kg-day] | NOAEL ([1]; reproduction developmental, no effects) [mg/kg-day] | NOEC [11] [mg/L] | LR50 [12] [g/ha]
1 | Cc1cc(Cl)cc2c(=O)n(C)c(-c3cc(Br)[nH]n3)nc12 [Chlorantraniliprole metabolite (IN-LBA24)] | > 2000 |  |  |  |  |  |  |  |  |  |  |  |  |  |  |  |  |  | 
2 | CNC(=O)c1cc(Br)[nH]n1 [5-Bromo-N-methyl-1H-pyrazole-3-carboxamide] |  | > 2000 |  |  |  |  |  |  |  |  |  |  |  |  |  |  |  |  | 
3 | CNC(=O)c1cc(Cl)cc(C)c1NC(=O)c1cc(Br)nn1-c1ncccc1Cl [Chlorantraniliprole] | > 5000 |  | 100 | 158 | > 1730 | > 2250 | 10.1 | > 1000 | 1000 | 0.0025 mg/L and 0.005 mg/kg | > 104 | > 4 | > 12 | 0.00447 | 278 | 156 | 1200 | 0.11 | > 750
